Data taken from patent publication US20210308102A1 (priority 2018, published 2021).

Columns and labels:
Conditions in all cases: human, in vivo
Presbyopic subjects [1] = tested on: Presbyopic subjects
Presbyopic subjects [2] = tested on: Presbyopic subjects; remark: listed apart in the source
Presbyopic subjects [3] = tested on: Presbyopic subjects; remark: listed apart in the source

`CN(CCCCCCCCCCN(C)C(=O)Oc1cccc([N+](C)(C)C)c1)C(=O)Oc1cccc([N+](C)(C)C)c1` [compound 3, Demecarium bromide] was tested, and the “duration of eye discomfort and conjunctival congestion” value (Presbyopic subjects [1]) was 2 to 3 days, the ocular tolerance (Presbyopic subjects [1]) was “Half of the subjects began to suffer from eye discomfort and conjunctival congestion after several hours” and the “share of the subjects with no eye discomfort” value (Presbyopic subjects [1]) was “half”.
For `CNC(=O)Oc1ccc2c(c1)[C@]1(C)CCN(C)[C@@H]1N2C` [compound 2, physostigmine], the “duration of eye twitching” value (Presbyopic subjects [1]) was 15 min, the “duration of eyelid and eyeball twitching” value (Presbyopic subjects [1]) was 15 min and the duration of headache (Presbyopic subjects [1]) was 1 to 2 h. For the same compound, the “duration of slightly inflexible eye mobility” value (Presbyopic subjects [1]) was 3 to 4 h, the “onset of eye twitching” value (Presbyopic subjects [1]) was 15 min and the “onset of eyelid and eyeball twitching” value (Presbyopic subjects [1]) was 15 min. The “time until eye irritation disappeared” value (Presbyopic subjects [1]) was 10 min, the “upper eyelid and eyeball adherence and mobility” value (Presbyopic subjects [1]) was “The upper eyelid and the eyeball were adhered tightly, and the mobility of the upper eyelid and eyeball was slightly weakened” and the “effect on miosis, 0.25% eye drops compared with 1.5% eye drops” value (Presbyopic subjects [2]) was “more than 1.5% compound 2 eye drops”. For the same compound, the “time at which efficacy reached the highest level” value (Presbyopic subjects [2]) was 2 h, the “time at which efficacy was still present” value (Presbyopic subjects [2]) was at least 6 h and the “improvement of distance corrected near visual acuity, 0.25% eye drops compared with 1.5% eye drops” value (Presbyopic subjects [3]) was “more than 1.5% compound 2 eye drops”.
`CN(C)C(=O)Oc1cccc([N+](C)(C)C)c1` [compound 1, neostigmine] was tested, and the “share of the subjects with no tolerance problems” value (Presbyopic subjects [1]) was “One third” and the “time until symptoms gradually alleviated” value (Presbyopic subjects [1]) was 30 min.
